± gives the standard deviation of the averaged measurements.
Columns and labels:
CAMPTOTHECIN [1] = compound: T1, CC[C@@]1(O)C(=O)OCc2c1cc1n(c2=O)Cc2cc3ccccc3nc2-1 [CAMPTOTHECIN]; assay: surviving fraction relative to DMSO-only wells; higher = less growth inhibition; conditions: exposure time: 5 days
Outline: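 Inhibitors were tested at 0.5, 1, 5, 10, 50, 100, 500 and 1000 nM, applied continuously for five days beginning 24 hours after log-phase tumour cells were seeded at 250–500 per well in 384-well plates. CellTiter-Glo luminescence served as the viability measure, expressed as surviving fraction against the median of DMSO-only wells. Each line, screened three times, was kept only with replicate Pearson r >0.7 and median Z' >0.3.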

CELECOXIB = compound: Cc1ccc(-c2cc(C(F)(F)F)nn2-c2ccc(S(N)(=O)=O)cc2)cc1 [CELECOXIB]; assay: area under dose-response curve of surviving fraction (unscaled, Aref=0) (surviving fraction x log10(nM)); higher = more resistant; conditions: exposure time: 5 days; dose range 0.5-1000 nM
Outline: (§1)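 Surviving fractions were fitted by 3-parameter logistic regression in the drc R package to give dose-response survival curves. They came from tumour cell lines treated for five days with eight inhibitor concentrations from 0.5 to 1000 nM and read by CellTiter-Glo luminescence against DMSO-only wells. The area under the curve is the unscaled activity area. It was calculated over log10 dose with Aref = 0.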

CAMPTOTHECIN [2] = compound: T1, CAMPTOTHECIN; assay: as above; conditions: exposure time: 5 days; dose range 0.5-1000 nM
Outline: as §1

OSI-906 = compound: C[C@]1(O)C[C@@H](c2nc(-c3ccc4ccc(-c5ccccc5)nc4c3)c3c(N)nccn32)C1 [OSI-906]; assay: as above; conditions: exposure time: 5 days; dose range 0.5-1000 nM
Outline: as §1

YM155 = compound: COCC[n+]1c2c(n(Cc3cnccn3)c1C)C(=O)c1ccccc1C2=O [YM155]; assay: as above; conditions: exposure time: 5 days; dose range 0.5-1000 nM
Outline: as §1

CARBOPLATIN = compound: O=C(O)C1(C(=O)O)CCC1.[NH2-].[NH2-].[Pt+2] [CARBOPLATIN]; assay: as above; conditions: exposure time: 5 days; dose range 0.5-1000 nM
Outline: as §1

[3] = compound: CC(=O)NCC(=O)N1[C@@H]2CC[C@H]1c1ccc(Nc3ncc(C(F)(F)F)c(NC4CCC4)n3)cc12; assay: as above; conditions: exposure time: 5 days; dose range 0.5-1000 nM
Outline: as §1

PACLITAXEL = compound: CC(=O)O[C@H]1C(=O)[C@@]2(C)[C@H]([C@H](OC(=O)c3ccccc3)[C@]3(O)C[C@H](OC(=O)[C@H](O)[C@@H](NC(=O)c4ccccc4)c4ccccc4)C(C)=C1C3(C)C)[C@]1(OC(C)=O)CO[C@@H]1C[C@@H]2O [PACLITAXEL]; assay: as above; conditions: exposure time: 5 days; dose range 0.5-1000 nM
Outline: as §1

[4] = compound: CC(=O)c1c(C)c2cnc(Nc3ccc(N4CCNCC4)cn3)nc2n(C2CCCC2)c1=O; assay: as above; conditions: exposure time: 5 days; dose range 0.5-1000 nM
Outline: as §1

GEFITINIB = compound: COc1cc2ncnc(Nc3ccc(F)c(Cl)c3)c2cc1OCCCN1CCOCC1 [GEFITINIB]; assay: as above; conditions: exposure time: 5 days; dose range 0.5-1000 nM
Outline: as §1

Test System: ZR751 BREAST
- surviving fraction (CAMPTOTHECIN [1]; 0.5 nM): 0.774 ± 0.073
- surviving fraction (CAMPTOTHECIN [1]; 1 nM): 0.823 ± 0.12
- surviving fraction (CAMPTOTHECIN [1]; 5 nM): 0.693 ± 0.13
- surviving fraction (CAMPTOTHECIN [1]; 10 nM): 0.586 ± 0.099
- surviving fraction (CAMPTOTHECIN [1]; 50 nM): 0.266 ± 0.024
- surviving fraction (CAMPTOTHECIN [1]; 100 nM): 0.223 ± 0.005
- surviving fraction (CAMPTOTHECIN [1]; 500 nM): 0.121 ± 0.0096
- surviving fraction (CAMPTOTHECIN [1]; 1000 nM): 0.0797 ± 0.0025
- area under dose-response curve (CELECOXIB): 3.57
- area under dose-response curve (CAMPTOTHECIN [2]): 1.47
- area under dose-response curve (OSI-906): 2.62
- area under dose-response curve (YM155): 1.2
- area under dose-response curve (CARBOPLATIN): 3.96
- area under dose-response curve [3]: 2.96
- area under dose-response curve (PACLITAXEL): 1.6
- area under dose-response curve [4]: 3.47

Test System: JURKAT HAEMATOPOIETIC AND LYMPHOID TISSUE
- surviving fraction (CAMPTOTHECIN [1]; 0.5 nM): 0.928 ± 0.043
- surviving fraction (CAMPTOTHECIN [1]; 1 nM): 0.902 ± 0.025
- surviving fraction (CAMPTOTHECIN [1]; 5 nM): 0.282 ± 0.011
- surviving fraction (CAMPTOTHECIN [1]; 10 nM): 0.0237 ± 0.0015
- surviving fraction (CAMPTOTHECIN [1]; 50 nM): 0.0293 ± 0.00058
- surviving fraction (CAMPTOTHECIN [1]; 100 nM): 0.0247 ± 0.00058
- surviving fraction (CAMPTOTHECIN [1]; 500 nM): 0.0203 ± 0.00058
- surviving fraction (CAMPTOTHECIN [1]; 1000 nM): 0.0253 ± 0.0011
- area under dose-response curve (GEFITINIB): 3.46
- area under dose-response curve (CELECOXIB): 3.37
- area under dose-response curve (CAMPTOTHECIN [2]): 0.802
- area under dose-response curve (OSI-906): 3.25
- area under dose-response curve (YM155): 1.3
- area under dose-response curve (CARBOPLATIN): 3.39
- area under dose-response curve [3]: 2.31
- area under dose-response curve (PACLITAXEL): 0.401

Test System: CADOES1 SOFT TISSUE
- surviving fraction (CAMPTOTHECIN [1]; 0.5 nM): 0.886 ± 0.088
- surviving fraction (CAMPTOTHECIN [1]; 1 nM): 0.818 ± 0.1
- surviving fraction (CAMPTOTHECIN [1]; 5 nM): 0.0943 ± 0.0059
- surviving fraction (CAMPTOTHECIN [1]; 10 nM): 0.0577 ± 0.014
- surviving fraction (CAMPTOTHECIN [1]; 50 nM): 0.045 ± 0.0044
- surviving fraction (CAMPTOTHECIN [1]; 100 nM): 0.0337 ± 0.0064
- surviving fraction (CAMPTOTHECIN [1]; 500 nM): 0.0317 ± 0.0021
- surviving fraction (CAMPTOTHECIN [1]; 1000 nM): 0.0297 ± 0.0015
- area under dose-response curve (GEFITINIB): 3.02
- area under dose-response curve (CELECOXIB): 2.95
- area under dose-response curve (CAMPTOTHECIN [2]): 0.642
- area under dose-response curve (OSI-906): 3.12
- area under dose-response curve (YM155): 3.1
- area under dose-response curve [3]: 2.12
- area under dose-response curve (PACLITAXEL): 1.87
- area under dose-response curve [4]: 2.79

Test System: 143B BONE
- surviving fraction (CAMPTOTHECIN [1]; 0.5 nM): 0.911 ± 0.076
- surviving fraction (CAMPTOTHECIN [1]; 1 nM): 0.9815 ± 0.00071
- surviving fraction (CAMPTOTHECIN [1]; 5 nM): 0.947 ± 0.025
- surviving fraction (CAMPTOTHECIN [1]; 10 nM): 0.83 ± 0.07
- surviving fraction (CAMPTOTHECIN [1]; 50 nM): 0.12 ± 0.005
- surviving fraction (CAMPTOTHECIN [1]; 100 nM): 0.0595 ± 0.0064
- surviving fraction (CAMPTOTHECIN [1]; 500 nM): 0.021
- surviving fraction (CAMPTOTHECIN [1]; 1000 nM): 0.0245 ± 0.00071
- area under dose-response curve [3]: 2.93
- area under dose-response curve (PACLITAXEL): 1.1
- area under dose-response curve [4]: 3.53

Test System: SJSA1 BONE
- surviving fraction (CAMPTOTHECIN [1]; 0.5 nM): 1.18 ± 0.043
- surviving fraction (CAMPTOTHECIN [1]; 1 nM): 1.2 ± 0.06
- surviving fraction (CAMPTOTHECIN [1]; 5 nM): 1.01 ± 0.15
- surviving fraction (CAMPTOTHECIN [1]; 10 nM): 1.2 ± 0.017
- surviving fraction (CAMPTOTHECIN [1]; 50 nM): 1.25 ± 0.084
- surviving fraction (CAMPTOTHECIN [1]; 100 nM): 1.11 ± 0.093
- surviving fraction (CAMPTOTHECIN [1]; 500 nM): 1.14 ± 0.24
- surviving fraction (CAMPTOTHECIN [1]; 1000 nM): 1.18 ± 0.083
- area under dose-response curve (CELECOXIB): 5.36
- area under dose-response curve (CAMPTOTHECIN [2]): 3.83
- area under dose-response curve (YM155): 5.19
- area under dose-response curve (CARBOPLATIN): 4.73
- area under dose-response curve [3]: 3.02
- area under dose-response curve (PACLITAXEL): 1.01
- area under dose-response curve [4]: 3.43

Test System: SG32 HEADNECK
- surviving fraction (CAMPTOTHECIN [1]; 0.5 nM): 0.308 ± 0.056
- surviving fraction (CAMPTOTHECIN [1]; 1 nM): 0.492 ± 0.0071
- surviving fraction (CAMPTOTHECIN [1]; 5 nM): 0.336 ± 0.0083
- surviving fraction (CAMPTOTHECIN [1]; 10 nM): 0.447 ± 0.071
- surviving fraction (CAMPTOTHECIN [1]; 50 nM): 0.25 ± 0.036
- surviving fraction (CAMPTOTHECIN [1]; 100 nM): 0.263 ± 0.037
- surviving fraction (CAMPTOTHECIN [1]; 500 nM): 0.0417 ± 0.0055
- surviving fraction (CAMPTOTHECIN [1]; 1000 nM): 0.026 ± 0.002
- area under dose-response curve (GEFITINIB): 4.01
- area under dose-response curve (CELECOXIB): 4.18
- area under dose-response curve (CAMPTOTHECIN [2]): 0.888
- area under dose-response curve (OSI-906): 2.28
- area under dose-response curve (YM155): 0.928
- area under dose-response curve (CARBOPLATIN): 3.86
- area under dose-response curve [3]: 2.57
- area under dose-response curve (PACLITAXEL): 1.08

Test System: SIHA CERVIX
- surviving fraction (CAMPTOTHECIN [1]; 0.5 nM): 0.822 ± 0.017
- surviving fraction (CAMPTOTHECIN [1]; 1 nM): 0.889 ± 0.024
- surviving fraction (CAMPTOTHECIN [1]; 5 nM): 0.857 ± 0.033
- surviving fraction (CAMPTOTHECIN [1]; 10 nM): 0.539 ± 0.1
- surviving fraction (CAMPTOTHECIN [1]; 50 nM): 0.44 ± 0.039
- surviving fraction (CAMPTOTHECIN [1]; 100 nM): 0.377 ± 0.0053
- surviving fraction (CAMPTOTHECIN [1]; 500 nM): 0.099 ± 0.0017
- surviving fraction (CAMPTOTHECIN [1]; 1000 nM): 0.0593 ± 0.0023
- area under dose-response curve (GEFITINIB): 3.44
- area under dose-response curve (CELECOXIB): 3.52
- area under dose-response curve (CAMPTOTHECIN [2]): 1.73
- area under dose-response curve (OSI-906): 3.17
- area under dose-response curve (YM155): 1.48
- area under dose-response curve (CARBOPLATIN): 3.82
- area under dose-response curve [3]: 2.88
- area under dose-response curve (PACLITAXEL): 0.974

Test System: HS57T BREAST
- surviving fraction (CAMPTOTHECIN [1]; 0.5 nM): 0.826 ± 0.044
- surviving fraction (CAMPTOTHECIN [1]; 1 nM): 0.849 ± 0.041
- surviving fraction (CAMPTOTHECIN [1]; 5 nM): 0.79 ± 0.011
- surviving fraction (CAMPTOTHECIN [1]; 10 nM): 0.505 ± 0.031
- surviving fraction (CAMPTOTHECIN [1]; 50 nM): 0.192 ± 0.007
- surviving fraction (CAMPTOTHECIN [1]; 100 nM): 0.149 ± 0.0066
- surviving fraction (CAMPTOTHECIN [1]; 500 nM): 0.0707 ± 0.0025
- surviving fraction (CAMPTOTHECIN [1]; 1000 nM): 0.0653 ± 0.0081

Test System: BT549 BREAST
- surviving fraction (CAMPTOTHECIN [1]; 0.5 nM): 0.743 ± 0.096
- surviving fraction (CAMPTOTHECIN [1]; 1 nM): 0.672 ± 0.094
- surviving fraction (CAMPTOTHECIN [1]; 5 nM): 0.377 ± 0.018
- surviving fraction (CAMPTOTHECIN [1]; 10 nM): 0.103 ± 0.014
- surviving fraction (CAMPTOTHECIN [1]; 50 nM): 0.032 ± 0.004
- surviving fraction (CAMPTOTHECIN [1]; 100 nM): 0.0227 ± 0.00058
- surviving fraction (CAMPTOTHECIN [1]; 500 nM): 0.02
- surviving fraction (CAMPTOTHECIN [1]; 1000 nM): 0.023 ± 0.002
- area under dose-response curve (GEFITINIB): 3.57
- area under dose-response curve (CELECOXIB): 3.78
- area under dose-response curve (CAMPTOTHECIN [2]): 0.714
- area under dose-response curve (OSI-906): 3.07
- area under dose-response curve (YM155): 1.74
- area under dose-response curve (CARBOPLATIN): 3.61
- area under dose-response curve [3]: 2.58
- area under dose-response curve (PACLITAXEL): 0.396
